Data published in ChEMBL document CHEMBL1152885 (Bioorg Med Chem Lett, 2009).

Experiments:
Carbonic anhydrase 4 = Carbonic anhydrase 4 (Homo sapiens, UniProt P22748)
Carbonic anhydrase 1 = Carbonic anhydrase 1 (Homo sapiens, UniProt P00915)
Carbonic anhydrase 12 = Carbonic anhydrase 12 (Homo sapiens, UniProt O43570)
Carbonic anhydrase 13 = Carbonic anhydrase 13 (Mus musculus, UniProt Q9D6N1)
Carbonic anhydrase 3 = Carbonic anhydrase 3 (Homo sapiens, UniProt P07451)
Carbonic anhydrase 6 = Carbonic anhydrase 6 (Homo sapiens, UniProt P23280)
Carbonic anhydrase 6, sequence (P23280 whole entry): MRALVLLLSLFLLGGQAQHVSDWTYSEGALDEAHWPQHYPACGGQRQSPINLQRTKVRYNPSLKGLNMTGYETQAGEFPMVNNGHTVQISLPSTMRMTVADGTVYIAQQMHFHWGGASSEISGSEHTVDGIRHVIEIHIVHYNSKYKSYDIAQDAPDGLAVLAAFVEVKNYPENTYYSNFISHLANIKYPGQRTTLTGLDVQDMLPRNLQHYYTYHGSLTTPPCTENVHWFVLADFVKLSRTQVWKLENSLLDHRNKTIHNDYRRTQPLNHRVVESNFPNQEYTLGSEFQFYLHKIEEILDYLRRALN

Carbonic anhydrase 14 = Carbonic anhydrase 14 (Homo sapiens, UniProt Q9ULX7)
Carbonic anhydrase 14, sequence (Q9ULX7 whole entry): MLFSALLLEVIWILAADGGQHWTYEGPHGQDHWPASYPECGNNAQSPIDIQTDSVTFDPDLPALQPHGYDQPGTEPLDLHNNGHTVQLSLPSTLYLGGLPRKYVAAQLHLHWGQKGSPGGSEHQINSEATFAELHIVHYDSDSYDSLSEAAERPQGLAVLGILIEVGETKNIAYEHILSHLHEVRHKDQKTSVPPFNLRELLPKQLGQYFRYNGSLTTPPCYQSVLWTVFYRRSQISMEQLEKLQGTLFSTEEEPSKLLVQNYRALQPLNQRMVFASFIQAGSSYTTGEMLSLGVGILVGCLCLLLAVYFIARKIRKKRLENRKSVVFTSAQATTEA

Carbonic anhydrase 9 = Carbonic anhydrase 9 (Homo sapiens, UniProt Q16790)
[1] = target: Carbonic anhydrase 5B, mitochondrial (Homo sapiens, UniProt Q9Y2D0)
Carbonic anhydrase 5B, mitochondrial, sequence (Q9Y2D0 whole entry): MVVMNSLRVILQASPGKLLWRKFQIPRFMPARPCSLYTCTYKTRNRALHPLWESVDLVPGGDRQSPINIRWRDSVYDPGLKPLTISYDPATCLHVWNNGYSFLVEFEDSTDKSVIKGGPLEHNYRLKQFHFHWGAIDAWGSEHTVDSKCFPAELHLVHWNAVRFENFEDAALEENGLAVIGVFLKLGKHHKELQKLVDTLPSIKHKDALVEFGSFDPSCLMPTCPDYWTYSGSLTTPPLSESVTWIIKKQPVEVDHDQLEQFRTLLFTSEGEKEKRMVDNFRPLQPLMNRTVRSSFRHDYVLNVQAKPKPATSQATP

Carbonic anhydrase 4, sequence (P22748 whole entry): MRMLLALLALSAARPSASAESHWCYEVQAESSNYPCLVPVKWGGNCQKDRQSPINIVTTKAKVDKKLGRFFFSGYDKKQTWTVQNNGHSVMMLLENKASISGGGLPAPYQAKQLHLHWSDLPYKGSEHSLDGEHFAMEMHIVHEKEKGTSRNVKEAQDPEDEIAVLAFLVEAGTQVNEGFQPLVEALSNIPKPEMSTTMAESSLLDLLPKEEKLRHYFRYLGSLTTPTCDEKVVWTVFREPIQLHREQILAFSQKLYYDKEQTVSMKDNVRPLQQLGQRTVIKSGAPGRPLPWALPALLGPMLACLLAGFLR
Carbonic anhydrase 13, sequence (Q9D6N1 whole entry): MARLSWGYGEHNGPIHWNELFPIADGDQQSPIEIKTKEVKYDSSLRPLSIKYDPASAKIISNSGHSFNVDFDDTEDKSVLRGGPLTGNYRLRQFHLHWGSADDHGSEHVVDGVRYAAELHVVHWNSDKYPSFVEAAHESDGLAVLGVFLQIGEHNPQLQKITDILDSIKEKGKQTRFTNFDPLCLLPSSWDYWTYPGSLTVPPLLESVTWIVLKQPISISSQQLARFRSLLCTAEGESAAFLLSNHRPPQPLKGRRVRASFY
Carbonic anhydrase 12, sequence (O43570 whole entry): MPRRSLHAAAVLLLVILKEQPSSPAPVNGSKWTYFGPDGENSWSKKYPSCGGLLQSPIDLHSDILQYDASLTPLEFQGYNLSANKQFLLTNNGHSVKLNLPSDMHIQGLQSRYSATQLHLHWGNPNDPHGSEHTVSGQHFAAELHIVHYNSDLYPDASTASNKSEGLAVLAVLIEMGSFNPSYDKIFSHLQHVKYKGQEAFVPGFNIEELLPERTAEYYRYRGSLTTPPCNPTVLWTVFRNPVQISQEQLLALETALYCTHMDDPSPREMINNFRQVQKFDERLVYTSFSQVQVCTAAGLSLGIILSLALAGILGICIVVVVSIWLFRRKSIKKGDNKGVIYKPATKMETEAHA
Carbonic anhydrase 3, sequence (P07451 whole entry): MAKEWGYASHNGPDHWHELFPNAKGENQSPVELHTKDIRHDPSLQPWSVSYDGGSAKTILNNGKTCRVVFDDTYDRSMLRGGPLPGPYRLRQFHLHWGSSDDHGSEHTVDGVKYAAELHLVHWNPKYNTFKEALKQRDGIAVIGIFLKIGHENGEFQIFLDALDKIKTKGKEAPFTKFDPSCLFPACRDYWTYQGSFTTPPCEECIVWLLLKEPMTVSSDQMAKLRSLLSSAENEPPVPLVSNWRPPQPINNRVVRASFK
Carbonic anhydrase 1, sequence (P00915 whole entry): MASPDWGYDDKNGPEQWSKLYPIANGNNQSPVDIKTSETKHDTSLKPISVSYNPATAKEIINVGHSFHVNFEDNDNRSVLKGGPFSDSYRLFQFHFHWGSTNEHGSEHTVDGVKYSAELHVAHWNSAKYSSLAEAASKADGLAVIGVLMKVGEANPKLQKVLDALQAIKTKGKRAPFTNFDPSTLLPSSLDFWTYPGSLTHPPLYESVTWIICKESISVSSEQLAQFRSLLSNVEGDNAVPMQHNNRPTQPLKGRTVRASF

Ki (Carbonic anhydrase 4): 0.0489 µM
Ki (Carbonic anhydrase 1): 0.0509 µM
Ki (Carbonic anhydrase 12): 0.0178 µM
Ki (Carbonic anhydrase 13): 4.85 µM
Ki (Carbonic anhydrase 3): 34.5 µM
Ki (Carbonic anhydrase 6): 0.025 µM
Ki (Carbonic anhydrase 14): 0.424 µM
Ki (Carbonic anhydrase 9): 0.0064 µM
Ki [1]: 0.0409 µM
Compound: NS(=O)(=O)c1ccc2[nH]c(-c3cscn3)nc2c1
